Results as given in patent US9346809B2 (LEO PHARMA A/S, priority 2009, dated 2016).

Tests used:
Assay type in all cases: biochemical
[1] = target: T1, JAK1 (aa 850-1154, catalytic domain, GST-tag) (Homo sapiens, UniProt P23458); assay: JAK kinase assay (HTRF, phosphorylation of TK substrate-biotin), JAK1; settings: HTRF assay, ATP at Km (7 μM); read-out: JAK1 kinase inhibitory activity (EC50 indicator)
T1 construct: JAK1 (aa 850-1154) and TYK2 (aa 871-1187) are expressed with an N-terminally fused GST-tag; GST (N); purchased Carna Biosciences, Inc; host or cells: baculovirus expression system
How it was run: (§1)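 EC50 values come from HTRF detection of phospho-biotin-TK peptide (1 μM) after 20-30 min RT reactions in Hepes pH 7.0 buffer with 0.75% DMSO. ATP was at Km for each enzyme: 7 μM JAK1, 4 μM JAK2, 2 μM JAK3, 13 μM TYK2. SEB (50 nM) was added for JAK1 and TYK2 only.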

[2] = target: T2, TYK2 (aa 871-1187, catalytic domain, GST-tag) (Homo sapiens, UniProt P29597); assay: JAK kinase assay (HTRF, phosphorylation of TK substrate-biotin), TYK2; settings: HTRF assay, ATP at Km (13 μM); read-out: TYK2 kinase inhibitory activity (EC50 indicator)
T2 construct: JAK1 (aa 850-1154) and TYK2 (aa 871-1187) are expressed with an N-terminally fused GST-tag; GST (N); purchased Carna Biosciences, Inc; host or cells: baculovirus expression system
T2 sequence (P29597 871-1187): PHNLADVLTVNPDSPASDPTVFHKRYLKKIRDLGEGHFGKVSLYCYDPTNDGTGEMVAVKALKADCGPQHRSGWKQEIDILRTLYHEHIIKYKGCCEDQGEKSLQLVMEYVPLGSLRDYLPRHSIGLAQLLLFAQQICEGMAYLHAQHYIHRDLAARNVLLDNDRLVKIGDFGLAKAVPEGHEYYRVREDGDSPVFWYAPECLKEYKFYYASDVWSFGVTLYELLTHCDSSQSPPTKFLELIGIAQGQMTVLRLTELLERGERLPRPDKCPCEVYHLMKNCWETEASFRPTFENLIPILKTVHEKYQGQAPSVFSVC
How it was run: as §1

[3] = target: T3, JAK3 (catalytic domain, His-tag) (Homo sapiens, UniProt P52333); assay: JAK kinase assay (HTRF, phosphorylation of TK substrate-biotin), JAK3; settings: HTRF assay, ATP at Km (2 μM); read-out: JAK3 kinase inhibitory activity (EC50 indicator)
T3 construct: All four purified enzymes contain only the catalytic domain; His (N); purchased Carna Biosciences, Inc; host or cells: baculovirus expression system
How it was run: as §1

[4] = target: T4, JAK2 (catalytic domain, His-tag) (Homo sapiens, UniProt O60674); assay: JAK kinase assay (HTRF, phosphorylation of TK substrate-biotin), JAK2; settings: HTRF assay, ATP at Km (4 μM); read-out: JAK2 kinase inhibitory activity (EC50 indicator)
T4 construct: All four purified enzymes contain only the catalytic domain; His (N); purchased Carna Biosciences, Inc; host or cells: baculovirus expression system
How it was run: as §1

T4 sequence (O60674 849-1124 limits assumed): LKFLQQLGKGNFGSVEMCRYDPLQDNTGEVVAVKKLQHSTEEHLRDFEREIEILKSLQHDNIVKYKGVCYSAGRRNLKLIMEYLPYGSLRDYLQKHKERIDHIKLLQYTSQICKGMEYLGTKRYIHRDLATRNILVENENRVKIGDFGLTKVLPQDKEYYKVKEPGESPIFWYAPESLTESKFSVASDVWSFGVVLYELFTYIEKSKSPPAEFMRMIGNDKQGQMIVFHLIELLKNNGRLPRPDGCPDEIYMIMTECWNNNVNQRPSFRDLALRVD
T1 sequence (P23458 850-1154): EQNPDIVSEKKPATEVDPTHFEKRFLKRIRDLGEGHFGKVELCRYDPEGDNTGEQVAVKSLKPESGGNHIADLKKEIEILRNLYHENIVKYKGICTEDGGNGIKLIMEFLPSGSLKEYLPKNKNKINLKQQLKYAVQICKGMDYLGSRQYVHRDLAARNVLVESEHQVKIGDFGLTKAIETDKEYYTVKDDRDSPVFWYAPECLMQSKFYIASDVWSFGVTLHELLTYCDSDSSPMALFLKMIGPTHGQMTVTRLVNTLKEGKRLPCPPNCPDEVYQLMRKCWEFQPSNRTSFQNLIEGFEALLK
T3 sequence (P52333 822-1111 limits assumed): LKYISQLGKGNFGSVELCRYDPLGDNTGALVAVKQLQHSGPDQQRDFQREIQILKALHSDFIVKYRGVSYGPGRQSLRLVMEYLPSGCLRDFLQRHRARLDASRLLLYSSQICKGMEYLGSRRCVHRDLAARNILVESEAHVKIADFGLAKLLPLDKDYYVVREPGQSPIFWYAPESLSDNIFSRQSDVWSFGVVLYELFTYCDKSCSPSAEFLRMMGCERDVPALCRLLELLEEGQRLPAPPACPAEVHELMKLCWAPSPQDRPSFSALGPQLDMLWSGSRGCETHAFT

| SMILES | EC50 [1] | EC50 [2] | EC50 [3] | EC50 [4] |
| --- | --- | --- | --- | --- |
| N#Cc1ccccc1C(=O)N1CCN(c2ccnc3[nH]ccc23)CC12CC2 [Example 235, 2-[7-(1H-Pyrrolo[2,3-b]pyridin-4-yl)-4,7-diaza-spiro[2.5]octane-4-carbonyl]-benzonitrile] | 100 to 500 nM | > 500 nM | > 500 nM | < 100 nM |
| N#Cc1cccc(CC(=O)N2CCN(c3ccnc4[nH]ccc34)CC23CC3)c1 [Example 236, 3-{2-Oxo-2-[7-(1H-pyrrolo[2,3-b]pyridin-4-yl)-4,7-diaza-spiro[2.5]oct-4-yl]-ethyl}-benzonitrile] | > 500 nM | > 500 nM | > 500 nM | > 500 nM |
| N#Cc1ccccc1CC(=O)N1CCN(c2ccnc3[nH]ccc23)CC12CC2 [Example 237, 2-{2-Oxo-2-[7-(1H-pyrrolo[2,3-b]pyridin-4-yl)-4,7-diaza-spiro[2.5]oct-4-yl]-ethyl}-benzonitrile] | > 500 nM | > 500 nM | 100 to 500 nM | 100 to 500 nM |
| CC(C)(C#N)C(=O)N1[C@@H]2CC[C@@H]1CN(c1ncnc3[nH]ccc13)C2 [Example 239, 2,2-Dimethyl-3-oxo-3-[3-(7H-pyrrolo[2,3-d]pyrimidin-4-yl)-3,8-diaza-bicyclo[3.2.1]oct-8-yl]-propionitrile] | 100 to 500 nM | > 500 nM | 100 to 500 nM | 100 to 500 nM |
| Cc1ccsc1C(=O)N1[C@@H]2CC[C@@H]1CN(c1ncnc3[nH]ccc13)C2 [Example 243, (3-Methyl-thiophen-2-yl)-[3-(7H-pyrrolo[2,3-d]pyrimidin-4-yl)-3,8-diaza-bicyclo[3.2.1]oct-8-yl]-methanone] | 100 to 500 nM | > 500 nM | 100 to 500 nM | < 100 nM |
| N#CC1(C(=O)N2[C@@H]3CC[C@@H]2CN(c2ncnc4[nH]ccc24)C3)CCOCC1 [Example 248, 4-[3-(7H-Pyrrolo[2,3-d]pyrimidin-4-yl)-3,8-diaza-bicyclo[3.2.1]octane-8-carbonyl]-tetrahydro-pyran-4-carbonitrile] | 100 to 500 nM | > 500 nM | 100 to 500 nM | < 100 nM |
| N#Cc1ccccc1C(=O)N1[C@@H]2CC[C@@H]1CN(c1ncnc3[nH]ccc13)C2 [Example 249, 2-[3-(7H-Pyrrolo[2,3-d]pyrimidin-4-yl)-3,8-diaza-bicyclo[3.2.1]octane-8-carbonyl]-benzonitrile] | 100 to 500 nM | > 500 nM | 100 to 500 nM | < 100 nM |
| N#Cc1ccccc1CC(=O)N1[C@@H]2CC[C@@H]1CN(c1ncnc3[nH]ccc13)C2 [Example 250, 2-{2-Oxo-2-[3-(7H-pyrrolo[2,3-d]pyrimidin-4-yl)-3,8-diaza-bicyclo[3.2.1]oct-8-yl]-ethyl}-benzonitrile] | 100 to 500 nM | > 500 nM | 100 to 500 nM | 100 to 500 nM |
| N#Cc1ccc(C(=O)N2C[C@@H]3C[C@H]2CN3c2ncnc3[nH]ccc23)cc1 [Example 258, 4-[5-(7H-Pyrrolo[2,3-d]pyrimidin-4-yl)-2,5-diaza-bicyclo[2.2.1]heptane-2-carbonyl]-benzonitrile] | > 500 nM | > 500 nM | > 500 nM | > 500 nM |
| Cc1ccc(C(=O)N2C[C@@H]3C[C@H]2CN3c2ncnc3[nH]ccc23)s1 [Example 265, (5-Methyl-thiophen-2-yl)-[5-(7H-pyrrolo[2,3-d]pyrimidin-4-yl)-2,5-diaza-bicyclo[2.2.1]hept-2-yl]-methanone] | > 500 nM | > 500 nM | > 500 nM | > 500 nM |

Now from value to compound:

| EC50 [1] | EC50 [2] | EC50 [3] | EC50 [4] | SMILES |
| --- | --- | --- | --- | --- |
| < 100 nM | 100 to 500 nM | 100 to 500 nM | < 100 nM | Cc1ccc(C(=O)N2CCN(c3ccnc4[nH]ccc34)CC23CC3)s1 [Example 231, (5-Methyl-thiophen-2-yl)-[7-(1H-pyrrolo[2,3-b]pyridin-4-yl)-4,7-diaza-spiro[2.5]oct-4-yl]-methanone] |
| < 100 nM | 100 to 500 nM | > 500 nM | < 100 nM | Cc1c(C(=O)N2CCN(c3ccnc4[nH]ccc34)CC23CC3)sc2ccccc12 [Example 232, (3-Methyl-benzo[b]thiophen-2-yl)-[7-(1H-pyrrolo[2,3-b]pyridin-4-yl)-4,7-diaza-spiro[2.5]oct-4-yl]-methanone] |
| 100 to 500 nM | > 500 nM | > 500 nM | < 100 nM | O=C(c1csc2ccccc12)N1CCN(c2ccnc3[nH]ccc23)CC12CC2 [Example 233, Benzo[b]thiophen-3-yl-[7-(1H-pyrrolo[2,3-b]pyridin-4-yl)-4,7-diaza-spiro[2.5]oct-4-yl]-methanone] |
| 100 to 500 nM | > 500 nM | > 500 nM | 100 to 500 nM | Cc1ccc2sc(C(=O)N3CCN(c4ccnc5[nH]ccc45)CC34CC4)cc2c1 [Example 234, (5-Methyl-benzo[b]thiophen-2-yl)-[7-(1H-pyrrolo[2,3-b]pyridin-4-yl)-4,7-diaza-spiro[2.5]oct-4-yl]-methanone] |
| < 100 nM | > 500 nM | > 500 nM | 100 to 500 nM | O=C(c1ccc(OC(F)(F)F)cc1)N1CCN(c2ccnc3[nH]ccc23)CC12CC2 [Example 238, [7-(1H-Pyrrolo[2,3-b]pyridin-4-yl)-4,7-diaza-spiro[2.5]oct-4-yl]-(4-trifluoromethoxy-phenyl)-methanone] |
| < 100 nM | > 500 nM | 100 to 500 nM | < 100 nM | O=C(c1ccccc1)N1[C@@H]2CC[C@@H]1CN(c1ncnc3[nH]ccc13)C2 [Example 240, Phenyl-[3-(7H-pyrrolo[2,3-d]pyrimidin-4-yl)-3,8-diaza-bicyclo[3.2.1]oct-8-yl]-methanone] |
| < 100 nM | > 500 nM | 100 to 500 nM | < 100 nM | O=C(c1ccccn1)N1[C@@H]2CC[C@@H]1CN(c1ncnc3[nH]ccc13)C2 [Example 241, Pyridin-2-yl-[3-(7H-pyrrolo[2,3-d]pyrimidin-4-yl)-3,8-diaza-bicyclo[3.2.1]oct-8-yl]-methanone] |
| < 100 nM | > 500 nM | 100 to 500 nM | < 100 nM | O=C(c1ccncc1)N1[C@@H]2CC[C@@H]1CN(c1ncnc3[nH]ccc13)C2 [Example 242, Pyridin-4-yl-[3-(7H-pyrrolo[2,3-d]pyrimidin-4-yl)-3,8-diaza-bicyclo[3.2.1]oct-8-yl]-methanone] |
| < 100 nM | > 500 nM | < 100 nM | < 100 nM | O=C(c1cccc(OC(F)(F)F)c1)N1[C@@H]2CC[C@@H]1CN(c1ncnc3[nH]ccc13)C2 [Example 244, [3-(7H-Pyrrolo[2,3-d]pyrimidin-4-yl)-3,8-diaza-bicyclo[3.2.1]oct-8-yl]-(3-trifluoromethoxy-phenyl)-methanone] |
| < 100 nM | > 500 nM | < 100 nM | < 100 nM | Cc1c(C(=O)N2[C@H]3CC[C@H]2CN(c2ncnc4[nH]ccc24)C3)sc2ccccc12 [Example 245, (3-Methyl-benzo[b]thiophen-2-yl)-[3-(7H-pyrrolo[2,3-d]pyrimidin-4-yl)-3,8-diaza-bicyclo[3.2.1]oct-8-yl]-methanone] |
| < 100 nM | 100 to 500 nM | < 100 nM | < 100 nM | O=C(c1csc2ccccc12)N1[C@H]2CC[C@H]1CN(c1ncnc3[nH]ccc13)C2 [Example 246, Benzo[b]thiophen-3-yl-[3-(7H-pyrrolo[2,3-d]pyrimidin-4-yl)-3,8-diaza-bicyclo[3.2.1]oct-8-yl]-methanone] |
| < 100 nM | > 500 nM | 100 to 500 nM | < 100 nM | Cc1ccc2sc(C(=O)N3[C@@H]4CC[C@H]3CN(c3ncnc5[nH]ccc35)C4)cc2c1 [Example 247, (5-Methyl-benzo[b]thiophen-2-yl)-[3-(7H-pyrrolo[2,3-d]pyrimidin-4-yl)-3,8-diaza-bicyclo[3.2.1]oct-8-yl]-methanone] |
| < 100 nM | > 500 nM | 100 to 500 nM | 100 to 500 nM | O=C(c1ccc(OC(F)(F)F)cc1)N1[C@@H]2CC[C@@H]1CN(c1ncnc3[nH]ccc13)C2 [Example 251, [3-(7H-Pyrrolo[2,3-d]pyrimidin-4-yl)-3,8-diaza-bicyclo[3.2.1]oct-8-yl]-(4-trifluoromethoxy-phenyl)-methanone] |
